Laboratory results published in patent US5367078A, “3-oxadiazolyl-1,6-naphthyridine derivatives” (Dainippon Pharmaceutical Co., Ltd., priority 1992, dated 1994).

Key:
benzodiazepine receptor = experiment: Benzodiazepine receptor binding assay ([^3 H]-diazepam); settings: [^3 H]-diazepam 1.5 nM, rat brain crude synaptosome membrane, pH 7.4, 0° C., 20 minutes
[1] = system: pentylenetetrazole-induced clonic convulsion; experiment: Activity on pentylenetetrazole-induced clonic convulsion (anti-PTZ activity); type: in vivo, mouse (Std-ddY male); settings: Mus musculus, 2 hours before pentylenetetrazole 85 mg/kg s.c., observed 30 minutes, read-out: Number of mice having antagonistic activity/number of test mice (converted); for responders at 10 mg/kg: 10 mg/kg oral; for responders at 20 mg/kg: 20 mg/kg oral; for responders at 50 mg/kg: 50 mg/kg oral; for responders at 2 mg/kg: 2 mg/kg oral
Description: Experiment 2 Activity on pentylenetetrazole-induced clonic convulsion (anti-PTZ activity)
The activity on pentylenetetrazole-induced clonic convulsion of the test compound was tested according to the method of E. A. Swinyard (cf. Anticonvulsant Drugs. Mercier, J., Ed., pp. 47-65, Pergamon Press, New York (1973)). In this test, petit real-type antiepileptics and most of benzodiazepine drugs show positive results.
A test compound was administered orally to Std-ddY male mice (weight; 20-25 g, five mice/group). […] When no clonic convulsion was observed, it was determined that the test compound had antagonistic activity.

| SMILES | IC50 (benzodiazepine receptor) [nM] | other results |
| --- | --- | --- |
| O=c1[nH]c2c(cc1-c1nnc(C(F)(F)F)o1)CN(Cc1ccccc1)CC2 [Example 115] | 50.3 | – |
| O=c1[nH]c2c(cc1-c1nc(C3CC3)no1)CN(Cc1ccccc1)CC2 [Example 143] | 2.19 | responders at 10 mg/kg [1]: 60% |
| Cc1cccc(CN2CCc3[nH]c(=O)c(-c4nc(C5CC5)no4)cc3C2)c1 [Example 160] | 3.75 | – |
| COc1nnc(-c2cc3c([nH]c2=O)CCN(Cc2cccc(F)c2)C3)o1 [Example 13] | – | responders at 20 mg/kg [1]: 100% |
| Cc1cccc(CN2CCc3[nH]c(=O)c(-c4nnc(C5CC5)o4)cc3C2)c1 [Example 81] | 5.17 | – |
| COc1nnc(-c2cc3c([nH]c2=O)CCN(Cc2cc(F)ccc2Cl)C3)o1 [Example 52] | 19.3 | responders at 10 mg/kg [1]: 100% |
| O=c1[nH]c2c(cc1-c1nnc(C3CC3)o1)CN(Cc1ccccc1)CC2 [Example 55, 6-benzyl-3-(5-cyclopropyl-1,3,4-oxadiazol-2-yl)-5,6,7,8-tetrahydro-1,6-naphthyridin-2(1H)-one] | 3.91 | responders at 50 mg/kg [1]: 100% |
| CCc1nnc(-c2cc3c([nH]c2=O)CCN(Cc2ccccc2)C3)o1 [Example 91] | 23.1 | responders at 50 mg/kg [1]: 100% |
| O=c1[nH]c2c(cc1-c1noc(-c3ccccc3)n1)CN(Cc1ccccc1)CC2 [Example 121] | 62.4 | – |
| O=c1[nH]c2c(cc1-c1nnc(-c3ccccc3)o1)CN(Cc1ccccc1)CC2 [Example 58] | 14.6 | – |
| O=c1[nH]c2c(cc1-c1nnc(C3CC3)o1)CN(Cc1cccc(Cl)c1)CC2 [Example 83] | – | responders at 50 mg/kg [1]: 100% |
| CCCc1nc(-c2cc3c([nH]c2=O)CCN(Cc2ccccc2)C3)no1 [Example 125] | 8.63 | – |
| O=c1[nH]c2c(cc1-c1nc(C3CC3)no1)CN(Cc1ccc(Cl)cc1)CC2 [Example 154] | 11 | – |
| COc1nnc(-c2cc3c([nH]c2=O)CCN(Cc2cc(F)ccc2Br)C3)o1 [Example 38] | 4.55 | responders at 2 mg/kg [1]: 80% |
| O=c1[nH]c2c(cc1-c1nc(-c3ccccc3)no1)CN(Cc1ccccc1)CC2 [Example 141, 6-benzyl-3-(3-phenyl-1,2,4-oxadiazol-5-yl)-5,6,7,8-tetrahydro-1,6-naphthyridin-2(1H)-one] | 22.8 | – |
| COc1nnc(-c2cc3c([nH]c2=O)CCN(Cc2ccccc2Br)C3)o1 [Example 26] | 14.1 | responders at 2 mg/kg [1]: 60% |
| COc1nnc(-c2cc3c([nH]c2=O)CCN(Cc2ccccc2Cl)C3)o1 [Example 10] | 6.95 | responders at 20 mg/kg [1]: 100% |
| O=c1[nH]c2c(cc1-c1nnc(-c3ccco3)o1)CN(Cc1ccccc1)CC2 [Example 64] | 4.09 | – |
| O=c1[nH]c2c(cc1-c1nc(C3CC3)no1)CN(Cc1cccc(Cl)c1)CC2 [Example 153] | 3.51 | – |
| O=c1[nH]c2c(cc1-c1nnc(C3CC3)o1)CN(Cc1cccc(F)c1)CC2 [Example 88] | 4.62 | – |
| O=c1[nH]c2c(cc1-c1nc(C3CC3)no1)CN(Cc1cccc(F)c1)CC2 [Example 158] | 3.73 | – |
| O=c1[nH]c2c(cc1-c1nc(C3CC3)no1)CN(Cc1ccccc1Cl)CC2 [Example 152] | 4.9 | – |
| CCCc1nnc(-c2cc3c([nH]c2=O)CCN(Cc2ccccc2)C3)o1 [Example 62] | 13.8 | – |
| C=C(C)c1nnc(-c2cc3c([nH]c2=O)CCN(Cc2ccccc2)C3)o1 [Example 111, 6-benzyl-3-(5-isopropenyl-1,3,4-oxadazol-2-yl)-5,6,7,8-tetrahydro-1,6-naphthyridin-2(1H)-one] | – | responders at 50 mg/kg [1]: 100% |
| COc1nnc(-c2cc3c([nH]c2=O)CCN(Cc2ccccc2)C3)o1 [Example 6, 6-benzyl-3-(5-methoxy-1,3,4-oxadiazol-2-yl)-5,6,7,8-tetrahydro-1,6-naphthyridine-2(1H)-one] | 9.91 | responders at 50 mg/kg [1]: 100% |
| CCc1nc(-c2cc3c([nH]c2=O)CCN(Cc2ccccc2)C3)no1 [Example 120] | 4.4 | responders at 10 mg/kg [1]: 90% |
| O=c1[nH]c2c(cc1-c1noc(C3CC3)n1)CN(Cc1ccccc1)CC2 [Example 119, 6-benzyl-3-(5-cyclopropyl-1,2,4-oxadiazol-3-yl)-5,6,7,8-tetrahydro-1,6-naphthyridin-2(1H)-one] | 1.29 | responders at 10 mg/kg [1]: 100% |
| CCc1noc(-c2cc3c([nH]c2=O)CCN(Cc2ccccc2)C3)n1 [Example 142] | 3.24 | responders at 10 mg/kg [1]: 80% |

| SMILES | IC50 (benzodiazepine receptor) [nM] | other results |
| --- | --- | --- |
| O=c1[nH]c2c(cc1-c1nc(C3CC3)no1)CN(Cc1ccccc1Br)CC2 [Example 155] | 6.08 | – |
| COc1nnc(-c2cc3c([nH]c2=O)CCN(Cc2ccc(Cl)cc2)C3)o1 [Example 7] | 13.5 | responders at 50 mg/kg [1]: 100% |
| COc1nnc(-c2cc3c([nH]c2=O)CCN(Cc2cccc([N+](=O)[O-])c2)C3)o1 [Example 23] | – | responders at 10 mg/kg [1]: 80% |
| O=c1[nH]c2c(cc1-c1nc(-c3cccs3)no1)CN(Cc1ccccc1)CC2 [Example 145] | 8.64 | – |
| CCCc1noc(-c2cc3c([nH]c2=O)CCN(Cc2ccccc2)C3)n1 [Example 147] | 2.5 | – |
| O=c1[nH]c2c(cc1-c1nnc(C3CC3)o1)CN(Cc1ccc(Cl)cc1)CC2 [Example 82] | 8.98 | – |
| COc1nnc(-c2cc3c([nH]c2=O)CCN(Cc2cccc(Cl)c2F)C3)o1 [Example 32] | 2.49 | – |
| O=c1[nH]c2c(cc1-c1nc(C3CC3)no1)CN(Cc1cccc(Br)c1)CC2 [Example 156] | 6.68 | – |
| COc1nnc(-c2cc3c([nH]c2=O)CCN(Cc2cccc(F)c2F)C3)o1 [Example 29] | 5.46 | – |
| CC(C)c1noc(-c2cc3c([nH]c2=O)CCN(Cc2ccccc2)C3)n1 [Example 146] | 9.11 | – |
| O=c1[nH]c2c(cc1-c1nc(C3CC3)no1)CN(Cc1ccccc1F)CC2 [Example 157] | 2.71 | – |
| COc1nnc(-c2cc3c([nH]c2=O)CCN(Cc2c(F)cccc2F)C3)o1 [Example 35] | – | responders at 2 mg/kg [1]: 100% |
| Cc1ccc(CN2CCc3[nH]c(=O)c(-c4nnc(C5CC5)o4)cc3C2)cc1 [Example 80] | – | responders at 50 mg/kg [1]: 80% |
| COc1ccc(CN2CCc3[nH]c(=O)c(-c4nnc(C5CC5)o4)cc3C2)cc1 [Example 85] | – | responders at 50 mg/kg [1]: 80% |
| O=c1[nH]c2c(cc1-c1nnc(-c3ccccc3Cl)o1)CN(Cc1ccccc1)CC2 [Example 61] | 6.25 | – |
| Cc1cc(-c2nnc(-c3cc4c([nH]c3=O)CCN(Cc3ccccc3)C4)o2)no1 [Example 66] | 10.1 | responders at 50 mg/kg [1]: 100% |
| CC(C)c1nnc(-c2cc3c([nH]c2=O)CCN(Cc2ccccc2)C3)o1 [Example 56] | 35.1 | responders at 50 mg/kg [1]: 80% |
| COc1nnc(-c2cc3c([nH]c2=O)CCN(Cc2c(F)ccc(F)c2F)C3)o1 [Example 36] | – | responders at 2 mg/kg [1]: 100% |
| COc1cccc(CN2CCc3[nH]c(=O)c(-c4nnc(OC)o4)cc3C2)c1 [Example 17] | – | responders at 20 mg/kg [1]: 60% |
| O=c1[nH]c2c(cc1-c1nnc(C3CC3)o1)CN(Cc1ccccc1F)CC2 [Example 89] | – | responders at 50 mg/kg [1]: 100% |
| COc1nnc(-c2cc3c([nH]c2=O)CCN(Cc2ccccc2C(F)(F)F)C3)o1 [Example 33] | – | responders at 10 mg/kg [1]: 80% |
| O=c1[nH]c2c(cc1-c1nnc(-c3cccs3)o1)CN(Cc1ccccc1)CC2 [Example 60] | 1.58 | responders at 50 mg/kg [1]: 100% |
| Cc1ccccc1CN1CCc2[nH]c(=O)c(-c3nc(C4CC4)no3)cc2C1 [Example 159] | 8.15 | – |
| COc1cccc(CN2CCc3[nH]c(=O)c(-c4nnc(C5CC5)o4)cc3C2)c1 [Example 86] | 7.91 | – |
| Cc1nc(-c2cc3c([nH]c2=O)CCN(Cc2ccccc2)C3)no1 [Example 122] | 5.96 | responders at 10 mg/kg [1]: 100% |
| O=c1[nH]c2c(cc1-c1noc(-c3cccs3)n1)CN(Cc1ccccc1)CC2 [Example 123] | 12.5 | – |
| CC(C)c1nc(-c2cc3c([nH]c2=O)CCN(Cc2ccccc2)C3)no1 [Example 124] | 5.4 | responders at 10 mg/kg [1]: 60% |
